According to ChEMBL document CHEMBL5465560, “Selectivity Literature for EUbOPEN Chemogenomic Library” (2024):

How the values were obtained:
[1] = biological target: T1, Mitogen-activated protein kinase kinase kinase 3 (Homo sapiens) (UniProt Q99759); assay: Selectivity interaction (ActivX KiNativ screen (kinase selectivity in THP-1 cell lysates)) EUB0000639a MAP3K3; assay type: subcellular; details: lysate, at 0.04 µM
T1 sequence (whole entry): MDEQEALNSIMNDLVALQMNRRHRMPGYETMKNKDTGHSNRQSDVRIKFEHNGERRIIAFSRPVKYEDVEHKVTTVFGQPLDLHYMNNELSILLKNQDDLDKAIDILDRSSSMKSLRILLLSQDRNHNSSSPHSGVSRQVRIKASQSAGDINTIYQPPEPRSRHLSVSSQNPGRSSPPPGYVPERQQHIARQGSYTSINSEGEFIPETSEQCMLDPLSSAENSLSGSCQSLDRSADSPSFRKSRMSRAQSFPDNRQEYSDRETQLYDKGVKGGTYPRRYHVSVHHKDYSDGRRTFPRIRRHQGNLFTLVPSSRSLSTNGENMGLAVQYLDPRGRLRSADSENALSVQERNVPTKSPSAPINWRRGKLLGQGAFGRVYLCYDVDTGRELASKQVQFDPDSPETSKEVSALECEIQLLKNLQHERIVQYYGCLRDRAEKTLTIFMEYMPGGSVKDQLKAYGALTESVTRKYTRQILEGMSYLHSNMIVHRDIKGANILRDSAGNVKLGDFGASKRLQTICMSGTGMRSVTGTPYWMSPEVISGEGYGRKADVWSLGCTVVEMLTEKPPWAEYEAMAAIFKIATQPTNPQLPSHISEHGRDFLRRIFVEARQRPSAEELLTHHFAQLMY

[2] = biological target: T2, Serine/threonine-protein kinase LATS1 (Homo sapiens) (UniProt O95835); assay: Selectivity interaction (ActivX KiNativ screen (kinase selectivity in THP-1 cell lysates)) EUB0000639a LATS1; assay type: subcellular; details: lysate, at 1 µM
T2 sequence (whole entry): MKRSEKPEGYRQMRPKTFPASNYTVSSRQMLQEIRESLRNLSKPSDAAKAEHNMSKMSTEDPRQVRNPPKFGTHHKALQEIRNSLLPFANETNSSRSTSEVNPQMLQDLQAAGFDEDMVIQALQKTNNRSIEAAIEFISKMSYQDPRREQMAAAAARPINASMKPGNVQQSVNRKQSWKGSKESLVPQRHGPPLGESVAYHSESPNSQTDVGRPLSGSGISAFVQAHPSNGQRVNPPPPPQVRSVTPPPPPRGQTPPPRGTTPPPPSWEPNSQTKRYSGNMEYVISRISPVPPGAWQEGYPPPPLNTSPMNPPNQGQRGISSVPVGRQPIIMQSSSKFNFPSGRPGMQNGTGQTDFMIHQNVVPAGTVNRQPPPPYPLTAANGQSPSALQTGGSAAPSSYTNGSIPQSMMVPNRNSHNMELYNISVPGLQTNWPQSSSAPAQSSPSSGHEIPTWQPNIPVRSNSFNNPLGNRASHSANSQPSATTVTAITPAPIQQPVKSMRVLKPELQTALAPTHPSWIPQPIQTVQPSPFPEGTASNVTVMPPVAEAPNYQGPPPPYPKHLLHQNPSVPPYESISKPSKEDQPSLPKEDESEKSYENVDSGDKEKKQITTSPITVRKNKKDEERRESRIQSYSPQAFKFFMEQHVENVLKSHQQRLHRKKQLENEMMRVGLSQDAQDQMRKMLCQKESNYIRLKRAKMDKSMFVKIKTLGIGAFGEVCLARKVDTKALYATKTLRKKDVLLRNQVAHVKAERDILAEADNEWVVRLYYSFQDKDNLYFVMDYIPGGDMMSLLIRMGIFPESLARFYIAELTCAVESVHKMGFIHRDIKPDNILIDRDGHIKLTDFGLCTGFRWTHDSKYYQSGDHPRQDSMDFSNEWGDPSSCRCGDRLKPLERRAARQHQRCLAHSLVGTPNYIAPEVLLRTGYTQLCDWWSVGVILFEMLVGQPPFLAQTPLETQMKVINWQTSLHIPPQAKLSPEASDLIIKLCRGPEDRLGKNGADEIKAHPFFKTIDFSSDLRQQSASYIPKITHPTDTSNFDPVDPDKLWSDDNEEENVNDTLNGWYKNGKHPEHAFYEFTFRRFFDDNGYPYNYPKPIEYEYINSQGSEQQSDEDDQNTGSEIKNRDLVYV

[3] = biological target: T3, Serine/threonine-protein kinase Nek1 (Homo sapiens) (UniProt Q96PY6); assay: Selectivity interaction (KinomeScan (DiscoverX)) EUB0000045b NEK1
T3 sequence (whole entry): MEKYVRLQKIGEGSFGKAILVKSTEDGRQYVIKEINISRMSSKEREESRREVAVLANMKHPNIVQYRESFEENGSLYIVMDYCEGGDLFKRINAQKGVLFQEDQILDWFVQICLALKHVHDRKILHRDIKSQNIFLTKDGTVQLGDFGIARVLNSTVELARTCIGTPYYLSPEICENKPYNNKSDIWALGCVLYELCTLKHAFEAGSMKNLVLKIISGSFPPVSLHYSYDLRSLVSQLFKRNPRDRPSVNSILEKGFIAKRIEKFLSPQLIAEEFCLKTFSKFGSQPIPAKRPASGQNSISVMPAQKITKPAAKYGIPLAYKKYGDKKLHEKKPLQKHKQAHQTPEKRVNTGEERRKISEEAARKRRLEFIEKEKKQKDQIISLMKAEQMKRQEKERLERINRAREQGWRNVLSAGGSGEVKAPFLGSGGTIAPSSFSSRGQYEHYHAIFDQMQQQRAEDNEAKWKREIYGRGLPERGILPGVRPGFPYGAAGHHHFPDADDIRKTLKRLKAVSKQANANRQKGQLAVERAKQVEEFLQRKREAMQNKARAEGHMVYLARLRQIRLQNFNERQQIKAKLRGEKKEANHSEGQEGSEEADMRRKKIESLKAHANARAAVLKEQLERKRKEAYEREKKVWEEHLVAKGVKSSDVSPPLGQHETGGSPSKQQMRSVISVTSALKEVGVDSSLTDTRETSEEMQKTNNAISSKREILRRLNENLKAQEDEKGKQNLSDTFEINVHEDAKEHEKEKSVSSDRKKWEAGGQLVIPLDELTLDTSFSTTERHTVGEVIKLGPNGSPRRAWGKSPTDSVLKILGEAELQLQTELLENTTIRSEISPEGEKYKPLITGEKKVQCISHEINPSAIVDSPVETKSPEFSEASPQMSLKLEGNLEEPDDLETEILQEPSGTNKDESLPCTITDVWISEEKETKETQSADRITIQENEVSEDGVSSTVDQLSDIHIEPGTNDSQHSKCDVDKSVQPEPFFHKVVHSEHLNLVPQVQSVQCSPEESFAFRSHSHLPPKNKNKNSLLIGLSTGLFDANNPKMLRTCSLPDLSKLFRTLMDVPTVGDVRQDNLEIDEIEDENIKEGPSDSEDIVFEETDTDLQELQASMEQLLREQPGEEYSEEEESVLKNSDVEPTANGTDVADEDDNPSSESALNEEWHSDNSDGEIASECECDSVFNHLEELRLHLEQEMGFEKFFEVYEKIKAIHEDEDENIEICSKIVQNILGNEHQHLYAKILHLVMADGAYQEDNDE

Row | SMILES | % of inhibition [1] | % of inhibition [2] | % of control ([3]; at 1 µM) | % of control ([3]; at 10 µM)
1 | CC[C@@H]1[C@H](F)C(=O)N[C@@H]1COc1nccc2cc(C(N)=O)c(OC)cc12 [ZIMLOVISERTIB] | 8.3% | -107% | – | –
2 | C=CC(=O)Nc1cc(-n2c(=O)ccc3cnc4ccc(-c5ccc(NS(C)(=O)=O)cc5)cc4c32)ccc1C | – | – | 100% | 81%
